In ChEMBL document CHEMBL1201862, “PubChem BioAssay data set” (2004):
The source made the active and inactive calls.

Assays:
[1] = target: T1, Sentrin-specific protease 7 (Homo sapiens, UniProt Q9BQF6); assay type: functional;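 further: Luminescence-based dose-response confirmation of ultra-high-throughput screening hits, measuring inhibition of SENP7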
T1 sequence (Q9BQF6 whole entry): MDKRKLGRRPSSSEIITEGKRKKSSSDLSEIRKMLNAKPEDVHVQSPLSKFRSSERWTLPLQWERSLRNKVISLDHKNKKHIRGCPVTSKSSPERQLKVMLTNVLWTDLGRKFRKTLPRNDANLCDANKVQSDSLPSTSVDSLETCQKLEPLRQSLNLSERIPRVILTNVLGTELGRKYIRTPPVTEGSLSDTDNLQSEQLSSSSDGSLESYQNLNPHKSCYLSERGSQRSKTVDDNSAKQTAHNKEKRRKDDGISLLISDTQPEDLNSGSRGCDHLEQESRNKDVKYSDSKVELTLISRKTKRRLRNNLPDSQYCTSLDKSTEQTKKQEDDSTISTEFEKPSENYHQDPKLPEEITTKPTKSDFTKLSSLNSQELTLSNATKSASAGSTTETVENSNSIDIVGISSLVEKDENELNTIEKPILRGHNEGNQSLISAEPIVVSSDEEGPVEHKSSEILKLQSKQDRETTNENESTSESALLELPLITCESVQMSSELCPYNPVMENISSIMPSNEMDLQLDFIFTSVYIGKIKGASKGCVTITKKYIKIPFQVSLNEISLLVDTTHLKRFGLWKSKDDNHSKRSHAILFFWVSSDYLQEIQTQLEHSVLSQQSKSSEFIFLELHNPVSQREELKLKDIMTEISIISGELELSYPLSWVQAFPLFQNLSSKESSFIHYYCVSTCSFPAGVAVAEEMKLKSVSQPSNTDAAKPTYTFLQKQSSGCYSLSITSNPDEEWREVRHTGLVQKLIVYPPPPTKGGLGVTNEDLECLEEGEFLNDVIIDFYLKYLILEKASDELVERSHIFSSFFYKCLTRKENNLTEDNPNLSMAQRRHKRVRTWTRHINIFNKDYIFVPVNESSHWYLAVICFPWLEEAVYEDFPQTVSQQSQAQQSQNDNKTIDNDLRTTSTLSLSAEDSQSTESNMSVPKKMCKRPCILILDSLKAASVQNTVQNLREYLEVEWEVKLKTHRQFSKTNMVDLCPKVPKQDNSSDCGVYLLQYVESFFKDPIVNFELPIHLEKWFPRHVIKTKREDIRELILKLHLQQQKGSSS

[2] = target: T2, Sentrin-specific protease 6 (Homo sapiens, UniProt Q9GZR1); assay type: functional;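 further: Luminescence-based dose-response confirmatory assay of SENP6 inhibition, following up an ultra-high-throughput screen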
T2 sequence (Q9GZR1 whole entry): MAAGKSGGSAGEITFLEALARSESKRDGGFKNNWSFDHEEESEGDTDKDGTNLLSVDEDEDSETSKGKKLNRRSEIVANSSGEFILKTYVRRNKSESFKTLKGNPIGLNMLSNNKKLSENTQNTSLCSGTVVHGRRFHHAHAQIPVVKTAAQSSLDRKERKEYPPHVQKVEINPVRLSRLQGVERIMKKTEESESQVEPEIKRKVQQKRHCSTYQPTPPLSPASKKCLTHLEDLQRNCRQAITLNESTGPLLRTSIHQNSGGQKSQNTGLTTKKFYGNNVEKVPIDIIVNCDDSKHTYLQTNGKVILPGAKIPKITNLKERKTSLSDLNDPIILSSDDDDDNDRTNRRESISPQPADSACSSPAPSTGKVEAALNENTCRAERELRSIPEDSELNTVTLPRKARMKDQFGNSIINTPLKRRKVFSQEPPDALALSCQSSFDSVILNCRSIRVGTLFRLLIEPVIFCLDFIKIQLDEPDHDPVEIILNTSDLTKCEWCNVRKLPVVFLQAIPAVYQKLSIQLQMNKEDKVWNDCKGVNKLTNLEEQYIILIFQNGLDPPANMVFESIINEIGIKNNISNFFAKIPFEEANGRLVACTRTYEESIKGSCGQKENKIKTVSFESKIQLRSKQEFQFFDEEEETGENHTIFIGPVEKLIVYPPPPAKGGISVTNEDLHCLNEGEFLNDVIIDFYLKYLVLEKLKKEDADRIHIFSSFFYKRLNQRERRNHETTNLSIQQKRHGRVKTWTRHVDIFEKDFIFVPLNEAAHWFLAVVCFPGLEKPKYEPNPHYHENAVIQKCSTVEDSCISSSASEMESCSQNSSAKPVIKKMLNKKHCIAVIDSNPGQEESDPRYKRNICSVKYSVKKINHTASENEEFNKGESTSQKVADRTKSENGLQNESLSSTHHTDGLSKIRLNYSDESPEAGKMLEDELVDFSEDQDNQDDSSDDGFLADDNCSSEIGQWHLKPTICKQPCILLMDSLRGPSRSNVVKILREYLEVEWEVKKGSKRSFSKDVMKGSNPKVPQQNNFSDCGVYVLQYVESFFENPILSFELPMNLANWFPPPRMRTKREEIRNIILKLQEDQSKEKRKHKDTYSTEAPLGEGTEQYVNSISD

Caspase-3 = target: T3, Caspase-3 (Homo sapiens, UniProt P42574); assay type: functional;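 further: Dose-response selectivity test against caspase-3 for candidate inhibitors of sentrin-specific proteases (SENPs)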
T3 sequence (P42574 whole entry): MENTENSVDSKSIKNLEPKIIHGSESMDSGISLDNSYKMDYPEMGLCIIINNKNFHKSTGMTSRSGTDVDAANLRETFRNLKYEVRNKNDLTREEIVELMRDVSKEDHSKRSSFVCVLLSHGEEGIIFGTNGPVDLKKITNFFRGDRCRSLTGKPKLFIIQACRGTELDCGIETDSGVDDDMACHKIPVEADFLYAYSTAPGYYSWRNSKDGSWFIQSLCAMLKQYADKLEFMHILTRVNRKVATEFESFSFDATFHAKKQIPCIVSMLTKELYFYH

[3] = target: T4, Sentrin-specific protease 8 (Homo sapiens, UniProt Q96LD8); assay type: functional;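 further: luminescence read-out of SENP8 inhibition, dose-response confirmation following an ultra-high-throughput screen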
T4 sequence (Q96LD8 whole entry): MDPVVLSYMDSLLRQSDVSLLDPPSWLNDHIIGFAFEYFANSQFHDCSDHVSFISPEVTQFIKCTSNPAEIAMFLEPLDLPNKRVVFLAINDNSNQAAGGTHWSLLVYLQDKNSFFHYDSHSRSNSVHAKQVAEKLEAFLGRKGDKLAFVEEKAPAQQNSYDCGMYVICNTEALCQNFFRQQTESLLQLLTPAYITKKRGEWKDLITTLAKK

[4] = viability of uninfected HEp-2 cells – cell-based, HTS, cytotoxicity control for RSV inhibitor project, dose response (AID 2410); assay type: functional; details: human respiratory syncytial virus
[5] = target: T5, Short transient receptor potential channel 4 (Mus musculus, UniProt Q9QUQ5); assay: calcium entry via TRPC4 opening agents – cell-based, HEK293 TRPC4/mu-opioid, Fluo-4 calcium, dose response (AID 434937); assay type: functional
T5 sequence (Q9QUQ5 whole entry): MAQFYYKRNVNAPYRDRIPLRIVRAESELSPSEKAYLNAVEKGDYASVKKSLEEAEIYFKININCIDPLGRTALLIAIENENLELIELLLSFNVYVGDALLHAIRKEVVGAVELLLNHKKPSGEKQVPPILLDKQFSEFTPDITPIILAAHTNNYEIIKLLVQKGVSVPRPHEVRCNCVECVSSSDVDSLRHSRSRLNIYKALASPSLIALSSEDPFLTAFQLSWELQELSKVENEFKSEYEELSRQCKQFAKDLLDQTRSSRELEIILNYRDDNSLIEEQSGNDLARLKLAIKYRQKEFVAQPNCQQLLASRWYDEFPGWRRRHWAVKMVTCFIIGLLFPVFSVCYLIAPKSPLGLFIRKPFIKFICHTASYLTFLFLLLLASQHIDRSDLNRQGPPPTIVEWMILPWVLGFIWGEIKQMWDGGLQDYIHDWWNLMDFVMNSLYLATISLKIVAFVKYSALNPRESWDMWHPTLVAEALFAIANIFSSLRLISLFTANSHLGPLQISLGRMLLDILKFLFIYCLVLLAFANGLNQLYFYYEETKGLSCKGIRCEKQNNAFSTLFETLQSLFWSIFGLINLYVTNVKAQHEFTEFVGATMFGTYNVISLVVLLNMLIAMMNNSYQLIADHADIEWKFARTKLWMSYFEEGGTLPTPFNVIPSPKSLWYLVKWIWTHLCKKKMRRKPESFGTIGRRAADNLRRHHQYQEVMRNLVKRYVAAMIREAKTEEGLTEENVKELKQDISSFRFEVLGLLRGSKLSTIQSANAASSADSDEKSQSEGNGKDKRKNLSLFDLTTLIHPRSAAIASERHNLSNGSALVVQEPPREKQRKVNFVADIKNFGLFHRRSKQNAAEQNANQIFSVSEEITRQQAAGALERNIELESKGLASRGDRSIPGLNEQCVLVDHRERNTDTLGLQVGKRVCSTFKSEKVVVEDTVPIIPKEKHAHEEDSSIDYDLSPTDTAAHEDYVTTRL

[6] = alpha-synuclein stem-loop luciferase translation blockers – H4 neuroglioma cells, luminescence, confirmation (AID 1988); assay type: functional, cell-based
[7] = luciferase reporter signal suppression in cells – H4 neuroglioma cells, luminescence, dose response (AID 1990); assay type: functional, cell-based
[8] = Luminescence Cell-Based Dose Response HTS to Identify Inhibitors of 5'UTR Stem-Loop Driven Prion Protein mRNA Translation in H4 Neuroglioblastoma Cells. [Related pubchem assays: 1827 (Project Summary), 1813 (Primary HTS)]; assay type: functional
[9] = NIH3T3 cell viability loss – ATP luminescence, mouse fibroblasts, counter-screen, dose response (AID 2010); assay type: functional, cell-based;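 further: cells exposed to compound for about 90 hours before reading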
[10] = target: T6, Polyadenylate-binding protein 1 (Homo sapiens, UniProt P11940); assay: MLLE domain peptide-binding blockers, IC50 – biochemical, fluorescence polarization, FITC-PAM2 peptide, dose response (AID 602259); assay type: functional; details: read-out: IC50_Mean
T6 sequence (P11940 whole entry, the tested form may be a part): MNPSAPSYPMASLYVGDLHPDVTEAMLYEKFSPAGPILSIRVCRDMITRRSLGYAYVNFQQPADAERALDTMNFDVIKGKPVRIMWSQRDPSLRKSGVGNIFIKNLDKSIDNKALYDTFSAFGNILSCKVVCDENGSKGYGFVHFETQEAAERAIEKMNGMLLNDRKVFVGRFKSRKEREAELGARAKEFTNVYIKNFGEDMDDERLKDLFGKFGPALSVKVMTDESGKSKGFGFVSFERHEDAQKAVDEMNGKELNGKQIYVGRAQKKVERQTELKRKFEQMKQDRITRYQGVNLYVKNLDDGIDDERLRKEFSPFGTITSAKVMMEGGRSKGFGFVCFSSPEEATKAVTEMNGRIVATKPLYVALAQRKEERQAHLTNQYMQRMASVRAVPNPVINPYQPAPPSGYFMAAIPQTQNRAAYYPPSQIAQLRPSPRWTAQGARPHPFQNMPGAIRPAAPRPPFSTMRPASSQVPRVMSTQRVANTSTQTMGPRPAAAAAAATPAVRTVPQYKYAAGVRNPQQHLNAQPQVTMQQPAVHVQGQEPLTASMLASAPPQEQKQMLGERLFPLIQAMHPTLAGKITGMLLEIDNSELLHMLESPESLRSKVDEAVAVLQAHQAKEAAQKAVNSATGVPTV

[11] = Trypanosoma cruzi growth suppression in host cells – NIH3T3 host cells, beta-gal luminescence, confirmation (AID 2044); assay type: functional, cell-based;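 further: intracellular parasites grown in NIH/3T3 mouse fibroblasts as host cells; luminescent beta-galactosidase reporter signal from transgenic T. cruzi replicating inside host cells; inhibitors lower the luminescence signal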
[12] = target: T6, Polyadenylate-binding protein 1; assay: MLLE binding blockers, Cy5 peptide tracer – biochemical, fluorescence polarization, Cy5-PAM2 peptide, secondary, miRNA deadenylation inhibitor project, dose response (AID 602260); assay type: functional; details: read-out: IC50_Mean
[13] = reduction of Shn3 3'UTR-driven luciferase in osteoblasts – cell-based, Clone20 osteoblasts, firefly luciferase, cherry-picked, dose response (AID 624132); assay type: functional;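 further: firefly luciferase luminescence from reporter carrying the Shn3 3'UTR in osteoblasts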
INS1 = assay: INS-1E survival protection against cytokine death – cell-based, luminescence, retest, dose response (AID 449756); assay type: functional; details: Rattus norvegicus;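 further: cell death triggered by IL-1 beta plus TNF-alpha plus IFN-gamma mixture; protective hits raise ATP signal compared with cytokine alone wells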
[14] = loss of viability in HepG2 cells – cell-based, CellTiter-Glo, cherry-picked, cytotoxicity control for Shn3 inhibitor project, dose response (AID 624134); assay type: functional
[15] = non-specific 3'UTR reporter inhibition in Clone20-Shn3RL – cell-based, Renilla luciferase, cherry-picked, counter-screen for Shn3 inhibitor project, dose response (AID 624133); assay type: functional
[16] = microbe, parasite or virus in culture; assay type: functional; details: Mycobacterium tuberculosis
[17] = Luminescence Cell-Based Dose Confirmation HTS to Identify Activators of 5'UTR Stem-Loop Driven Alpha-Synuclein mRNA Translation in H4 Neuroglioblastoma Cells. [Related pubchem assays: 1829 (Project Summary), 1814 (Primary HTS)]; assay type: functional
[18] = Luminescence Cell-Based Dose Response HTS to Identify Activators of Luciferase Translation or Activity in H4 […] Cells. [Related pubchem assays: 1829 (Project Summary), 1814 (Primary HTS)]; assay type: functional
H4 = assay: Luminescence Cell-Based Dose Response HTS to Identify Activators of 5'UTR Stem-Loop Driven Prion Protein mRNA Translation in H4 Neuroglioblastoma Cells. [Related pubchem assays: 1829 (Project Summary), 1814 (Primary HTS)]; assay type: functional; details: Homo sapiens
[19] = Luminescence Cell-Based Dose Retest to Confirm Inhibitors of Cancer Stem Cells. [Related pubchem assays (depositor defined):AID2717, AID2721]; assay type: functional; details: Homo sapiens

N=c1oc2ccccc2cc1C(=O)Nc1ccccc1
IC50 [1]: 11.4 µM (active) | IC50 [2]: 15.6 µM (active) | IC50 (Caspase-3): 13.6 µM (active) | IC50 [3]: > 100 µM (inactive)

O=C(Oc1ccc2ccccc2c1Cl)N1CCCCCC1
IC50 [1]: 7.15 µM (active) | IC50 [2]: 10.6 µM (active) | CC50 [4]: 27.6 µM (active) | IC50 (Caspase-3): 17.4 µM (active) | IC50 [3]: 15.4 µM (active)

Cc1ccc(Oc2cc(-n3nc(C)cc3C)ncn2)cc1
IC50 [1]: 9.25 µM (active) | IC50 [2]: 35.7 µM (active) | IC50 (Caspase-3): 23.5 µM (active) | IC50 [3]: 54.7 µM (active)

Cc1csc2c(N3CCN(C(S)=Nc4ccc(F)cc4F)CC3)ncnc12
EC50 [5]: 1.88 µM (active)

CN(C)CCCN(C(=O)c1ccc(S(=O)(=O)N2CCCc3ccccc32)cc1)c1nc2ccc(F)cc2s1
EC50 [6]: > 120 µM (not active) | EC50 [7]: 12.6 µM (active) | EC50 [5]: 2.37 µM (active) | EC50 [8]: > 120 µM (not active)

Sc1nnc2c3ccccc3n(CCc3ccccc3)c2n1
EC50 [9]: > 60 µM (not active) | CC50 [4]: 23.8 µM (active) | IC50 [10]: > 66 µM (inactive) | EC50 [11]: 2.69 µM (active) | IC50 [12]: > 66 µM (inactive)

COc1ccccc1/C=C/CN1CCC(n2nccc2NC(=O)CCc2ccccc2)CC1
AC50 [13]: 1.91 µM (active) | AC50 (INS1): 5.75 µM (active) | AC50 [14]: 42.3 µM (active) | AC50 [15]: 4.23 µM (active)

COc1cc(/C=C/C(=O)Nc2nnc(C(C)(C)C)s2)cc(OC)c1OC
IC50 [10]: > 66 µM (inactive) | IC50 [12]: > 66 µM (inactive)

CC(=O)c1cc(-c2ccccc2)[nH]c1N1CCOCC1
IC50 [10]: > 66 µM (inactive) | IC50 [12]: > 66 µM (inactive)

COc1ccc(C2CC(c3cccs3)=Nc3ccccc3S2)cc1 (configuration not stated)
CC50 [16]: > 40 µM (active) | IC50 [10]: > 66 µM (inactive) | EC50 [17]: 7.19 µM (active) | EC50 [18]: 9.21 µM (active) | EC50 (H4): 7.12 µM (active) | IC50 [12]: > 66 µM (inactive)

Cc1ccc(C)c(S(=O)(=O)N2CCN(c3ncnc4sccc34)CC2)c1
AC50 [13]: 0.631 µM (active) | AC50 [19]: 1.25 µM (active) | AC50 (INS1): 3.41 µM (active) | AC50 [14]: 2.55 µM (active) | AC50 [15]: 2.38 µM (active)

CN(CC(=O)Nc1ccccc1Cl)C(=O)c1cccc(S(=O)(=O)N2CCN(Cc3ccccc3)CC2)c1
AC50 [13]: 3.47 µM (active) | AC50 [14]: 50.5 µM (active) | AC50 [15]: 4.83 µM (active)

COc1ccc(Cc2c(C(C)(C)C)nc3c(C)cc(Br)cn23)c(C)c1
IC50 [10]: 52.7 µM (inactive) | IC50 [12]: > 66 µM (inactive)
